Experimental data from ChEMBL document CHEMBL1201861, “Genomics of Drug Sensitity in Cancer screening data, Wellcome Trust Sanger Institute”.

Experiments:
Assay in all cases: cells
UO-31 = type: functional, cell-based; conditions: Homo sapiens;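 note: cell viability assay measuring inhibition of cell growth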
Description: SANGER: Inhibition of human U031 cell growth in a cell viability assay.

COR-L105 = type: functional, cell-based; conditions: Homo sapiens;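 note: cell growth inhibition determined with a viability assay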
Description: SANGER: Inhibition of human COR-L105 cell growth in a cell viability assay.

A673 = type: functional, cell-based; conditions: Homo sapiens;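 note: growth inhibition of human A673 cells, read out through a cell viability assay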
Description: SANGER: Inhibition of human A673 cell growth in a cell viability assay.

PA-1 = type: functional, cell-based; conditions: Homo sapiens;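 note: IC50 for suppression of PA-1 cell proliferation, determined with a cell viability read-out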
Description: SANGER: Inhibition of human PA-1 cell growth in a cell viability assay.

EW-22 = type: functional, cell-based; conditions: Homo sapiens;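 note: growth inhibition of the EW-22 cell line, measured with a cell viability readout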
Description: SANGER: Inhibition of human EW-22 cell growth in a cell viability assay.

G-402 = type: functional, cell-based; conditions: Homo sapiens
Description: SANGER: Inhibition of human G-402 cell growth in a cell viability assay.

ACHN = type: functional, cell-based; conditions: Homo sapiens;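 note: cell viability read-out used to gauge how strongly growth of human ACHN cells is suppressed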
Description: SANGER: Inhibition of human ACHN cell growth in a cell viability assay.

NCI-H2030 = type: functional, cell-based; conditions: Homo sapiens;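 note: growth inhibition of human NCI-H2030 cells, read out by a cell viability assay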
Description: SANGER: Inhibition of human NCI-H2030 cell growth in a cell viability assay.

SJRH30 = type: functional, cell-based; conditions: Homo sapiens;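 note: growth inhibition of human SJRH30 cells, read out with a cell viability assay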
Description: SANGER: Inhibition of human SJRH30 cell growth in a cell viability assay.

KYSE-70 cell line = type: functional, cell-based; conditions: Homo sapiens;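 note: cell viability assay read-out, with IC50 expressing suppression of KYSE-70 cell growth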
Description: SANGER: Inhibition of human KYSE-70 cell growth in a cell viability assay.

BFTC-905 = type: functional, cell-based; conditions: Homo sapiens
Description: SANGER: Inhibition of human BFTC-905 cell growth in a cell viability assay.

SW13 = type: functional, cell-based; conditions: Homo sapiens;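 note: IC50 is inhibition of SW13 cell growth, read out with a cell viability assay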
Description: SANGER: Inhibition of human SW13 cell growth in a cell viability assay.

KP-N-YN = type: functional, cell-based; conditions: Homo sapiens;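 note: growth inhibition of KP-N-YN cells, read out with a cell viability assay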
Description: SANGER: Inhibition of human KP-N-YN cell growth in a cell viability assay.

NCI-H1755 = type: functional, cell-based; conditions: Homo sapiens;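 note: cell viability readout used to measure growth inhibition of NCI-H1755 cells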
Description: SANGER: Inhibition of human NCI-H1755 cell growth in a cell viability assay.

KYSE-150 cell line = type: functional, cell-based; conditions: Homo sapiens;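 note: growth inhibition of human KYSE-150 cells, read out with a cell viability assay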
Description: SANGER: Inhibition of human KYSE-150 cell growth in a cell viability assay.

RMG-I = type: functional, cell-based; conditions: Homo sapiens;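 note: growth inhibition of human RMG-I cells, read out with a cell viability assay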
Description: SANGER: Inhibition of human RMG-I cell growth in a cell viability assay.

NCI-H2228 = type: functional, cell-based; conditions: Homo sapiens;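 note: growth inhibition of human NCI-H2228 cells, read out by a cell viability assay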
Description: SANGER: Inhibition of human NCI-H2228 cell growth in a cell viability assay.

HOS = type: functional, cell-based; conditions: Homo sapiens;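 note: growth inhibition of human HOS cells, read out with a cell viability assay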
Description: SANGER: Inhibition of human HOS cell growth in a cell viability assay.

KYSE-140 = type: functional, cell-based; conditions: Homo sapiens;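 note: cell viability assay measuring growth inhibition in human KYSE-140 cells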
Description: SANGER: Inhibition of human KYSE-140 cell growth in a cell viability assay.

HCC 2998 = type: functional, cell-based; conditions: Homo sapiens;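 note: growth inhibition of human HCC2998 cells, measured with a cell viability read-out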
Description: SANGER: Inhibition of human HCC2998 cell growth in a cell viability assay.

CAL-51 = type: functional, cell-based; conditions: Homo sapiens;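 note: human CAL-51 cell line, growth inhibition read out via a cell viability assay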
Description: SANGER: Inhibition of human CAL-51 cell growth in a cell viability assay.

UACC-893 = type: functional, cell-based; conditions: Homo sapiens
Description: SANGER: Inhibition of human UACC-893 cell growth in a cell viability assay.

MKN-7 = type: functional, cell-based; conditions: Homo sapiens;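 note: growth inhibition of MKN-7 cells, read out with a cell viability assay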
Description: SANGER: Inhibition of human MKN7 cell growth in a cell viability assay.

CAL-54 = type: functional, cell-based; conditions: Homo sapiens;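 note: growth inhibition of CAL-54 cells, read out by a viability measurement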
Description: SANGER: Inhibition of human CAL-54 cell growth in a cell viability assay.

COLO-741 = type: functional, cell-based; conditions: Homo sapiens
Description: SANGER: Inhibition of human COLO-741 cell growth in a cell viability assay.

NCI-H661 = type: functional, cell-based; conditions: Homo sapiens;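 note: cell viability assay read-out, IC50 being the concentration that inhibits growth of the cells by half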
Description: SANGER: Inhibition of human NCI-H661 cell growth in a cell viability assay.

UMC-11 = type: functional, cell-based; conditions: Homo sapiens;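 note: growth inhibition of UMC-11 cells, read out with a cell viability assay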
Description: SANGER: Inhibition of human UMC-11 cell growth in a cell viability assay.

KYSE-270 = type: functional, cell-based; conditions: Homo sapiens;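 note: cell growth inhibition measured with a viability assay in the human KYSE-270 line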
Description: SANGER: Inhibition of human KYSE-270 cell growth in a cell viability assay.

PANC-03-27 = type: functional, cell-based; conditions: Homo sapiens
Description: SANGER: Inhibition of human PANC-03-27 cell growth in a cell viability assay.

KOSC-2 = type: functional, cell-based; conditions: Homo sapiens;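 note: growth inhibition of KOSC-2 cells, read out by a cell viability assay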
Description: SANGER: Inhibition of human KOSC-2 cell growth in a cell viability assay.

TCC-SUP = type: functional, cell-based; conditions: Homo sapiens;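 note: growth inhibition of TCC-SUP cells, read out with a cell viability assay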
Description: SANGER: Inhibition of human TCCSUP cell growth in a cell viability assay.

T-24 = type: functional, cell-based; conditions: Homo sapiens;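 note: growth inhibition of T-24 cells, read out with a cell viability assay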
Description: SANGER: Inhibition of human T-24 cell growth in a cell viability assay.

BFTC-909 = type: functional, cell-based; conditions: Homo sapiens
Description: SANGER: Inhibition of human BFTC-909 cell growth in a cell viability assay.

U-118-MG = type: functional, cell-based; conditions: Homo sapiens
Description: SANGER: Inhibition of human U-118-MG cell growth in a cell viability assay.

CAL-12T = type: functional, cell-based, Homo sapiens;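 note: growth inhibition of human CAL-12T cells, read out with a cell viability assay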
Description: SANGER: Inhibition of human CAL-12T cell growth in a cell viability assay.

NCI-H2170 = type: functional, cell-based; conditions: Homo sapiens;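 note: cell viability assay measuring growth inhibition of human NCI-H2170 cancer cells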
Description: SANGER: Inhibition of human NCI-H2170 cell growth in a cell viability assay.

IGR-1 = type: functional, cell-based; conditions: Homo sapiens;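 note: growth inhibition of human IGR-1 cells, read out with a cell viability assay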
Description: SANGER: Inhibition of human IGR-1 cell growth in a cell viability assay.

HuP-T4 = type: functional, cell-based; conditions: Homo sapiens;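 note: cell viability assay measuring how much HuP-T4 cell growth is inhibited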
Description: SANGER: Inhibition of human HuP-T4 cell growth in a cell viability assay.

OE33 = type: functional, cell-based; conditions: Homo sapiens;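 note: growth inhibition of human OE33 cells, measured by a cell viability assay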
Description: SANGER: Inhibition of human OE33 cell growth in a cell viability assay.

HEC-1 = type: functional, cell-based; conditions: Homo sapiens;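 note: growth inhibition of the cell line, read out with a cell viability assay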
Description: SANGER: Inhibition of human HEC-1 cell growth in a cell viability assay.

NCI-H1792 = type: functional, cell-based; conditions: Homo sapiens;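 note: growth inhibition of human NCI-H1792 cells, read out as cell viability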
Description: SANGER: Inhibition of human NCI-H1792 cell growth in a cell viability assay.

VMRC-RCZ = type: functional, cell-based; conditions: Homo sapiens;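 note: growth inhibition measured with a cell viability assay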
Description: SANGER: Inhibition of human VMRC-RCZ cell growth in a cell viability assay.

HPAF-II = type: functional, cell-based; conditions: Homo sapiens;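 note: growth inhibition of HPAF-II cells, read out with a cell viability assay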
Description: SANGER: Inhibition of human HPAF-II cell growth in a cell viability assay.

DMS-273 = type: functional, cell-based; conditions: Homo sapiens
Description: SANGER: Inhibition of human DMS-273 cell growth in a cell viability assay.

HT-29 = type: functional, cell-based; conditions: Homo sapiens;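 note: growth inhibition of human HT-29 cells, read out by a cell viability assay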
Description: SANGER: Inhibition of human HT-29 cell growth in a cell viability assay.

Huh-7 = type: functional, cell-based; conditions: Homo sapiens;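 note: HuH-7 cell growth inhibition, read out with a cell viability assay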
Description: SANGER: Inhibition of human HuH-7 cell growth in a cell viability assay.

KU-19-19 = type: functional, cell-based; conditions: Homo sapiens
Description: SANGER: Inhibition of human KU-19-19 cell growth in a cell viability assay.

CP50-MEL-B = type: functional, cell-based; conditions: Homo sapiens;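 note: growth inhibition of the human cell line, measured with a cell viability read-out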
Description: SANGER: Inhibition of human CP50-MEL-B cell growth in a cell viability assay.

CHP-212 = type: functional, cell-based; conditions: Homo sapiens
Description: SANGER: Inhibition of human CHP-212 cell growth in a cell viability assay.

Calu-3 = type: functional, cell-based; conditions: Homo sapiens;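 note: growth inhibition of human Calu-3 cells, determined with a cell viability assay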
Description: SANGER: Inhibition of human Calu-3 cell growth in a cell viability assay.

MHH-ES-1 = type: functional, cell-based; conditions: Homo sapiens;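 note: cell growth inhibition measured by a cell viability assay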
Description: SANGER: Inhibition of human MHH-ES-1 cell growth in a cell viability assay.

Which results are given for `Cn1cc(/C=C2\C(=O)Nc3cccnc32)c2ccccc21`?
IC50 (UO-31): > 2 µM; IC50 (COR-L105): 0.494 µM; IC50 (A673): > 2 µM; IC50 (PA-1): > 2 µM; IC50 (EW-22): > 2 µM; IC50 (G-402): > 2 µM; IC50 (ACHN): > 2 µM; IC50 (NCI-H2030): > 2 µM; IC50 (SJRH30): > 2 µM; IC50 (KYSE-70 cell line): > 2 µM; IC50 (BFTC-905): > 2 µM; IC50 (SW13): > 2 µM; IC50 (KP-N-YN): > 2 µM; IC50 (NCI-H1755): > 2 µM; IC50 (KYSE-150 cell line): > 2 µM; IC50 (RMG-I): > 2 µM; IC50 (NCI-H2228): > 2 µM; IC50 (HOS): > 2 µM; IC50 (KYSE-140): > 2 µM; IC50 (HCC 2998): > 2 µM; IC50 (CAL-51): > 2 µM; IC50 (UACC-893): > 2 µM; IC50 (MKN-7): > 2 µM; IC50 (CAL-54): > 2 µM; IC50 (COLO-741): > 2 µM; IC50 (NCI-H661): > 2 µM; IC50 (UMC-11): > 2 µM; IC50 (KYSE-270): > 2 µM; IC50 (PANC-03-27): > 2 µM; IC50 (KOSC-2): > 2 µM; IC50 (TCC-SUP): > 2 µM; IC50 (T-24): 0.638 µM; IC50 (BFTC-909): > 2 µM; IC50 (U-118-MG): > 2 µM; IC50 (CAL-12T; Homo sapiens, CAL-12T): > 2 µM; IC50 (NCI-H2170): > 2 µM; IC50 (IGR-1): > 2 µM; IC50 (HuP-T4): > 2 µM; IC50 (OE33): > 2 µM; IC50 (HEC-1): > 2 µM; IC50 (NCI-H1792): > 2 µM; IC50 (VMRC-RCZ): > 2 µM; IC50 (HPAF-II): > 2 µM; IC50 (DMS-273): > 2 µM; IC50 (HT-29): > 2 µM; IC50 (Huh-7): > 2 µM; IC50 (KU-19-19): > 2 µM; IC50 (CP50-MEL-B): > 2 µM; IC50 (CHP-212): > 2 µM; IC50 (Calu-3): > 2 µM; IC50 (MHH-ES-1): > 2 µM

Which results are given for `O=c1cc(N2CCOCC2)oc2c(-c3cccc4c3sc3ccccc34)cccc12`?
IC50 (UO-31): > 2 µM; IC50 (COR-L105): > 2 µM; IC50 (A673): > 2 µM; IC50 (PA-1): 1.58 µM; IC50 (EW-22): > 2 µM; IC50 (G-402): > 2 µM; IC50 (ACHN): > 2 µM; IC50 (NCI-H2030): > 2 µM; IC50 (SJRH30): > 2 µM; IC50 (KYSE-70 cell line): > 2 µM; IC50 (BFTC-905): > 2 µM; IC50 (SW13): > 2 µM; IC50 (KP-N-YN): > 2 µM; IC50 (NCI-H1755): > 2 µM; IC50 (KYSE-150 cell line): > 2 µM; IC50 (RMG-I): > 2 µM; IC50 (NCI-H2228): > 2 µM; IC50 (HOS): > 2 µM; IC50 (KYSE-140): > 2 µM; IC50 (HCC 2998): > 2 µM; IC50 (CAL-51): > 2 µM; IC50 (UACC-893): > 2 µM; IC50 (MKN-7): > 2 µM; IC50 (CAL-54): > 2 µM; IC50 (COLO-741): > 2 µM; IC50 (NCI-H661): > 2 µM; IC50 (UMC-11): > 2 µM; IC50 (KYSE-270): > 2 µM; IC50 (PANC-03-27): > 2 µM; IC50 (KOSC-2): > 2 µM; IC50 (TCC-SUP): > 2 µM; IC50 (T-24): > 2 µM; IC50 (BFTC-909): > 2 µM; IC50 (U-118-MG): > 2 µM; IC50 (CAL-12T; cal-12t): > 2 µM; IC50 (NCI-H2170): > 2 µM; IC50 (IGR-1): > 2 µM; IC50 (HuP-T4): > 2 µM; IC50 (OE33): > 2 µM; IC50 (HEC-1): > 2 µM; IC50 (NCI-H1792): > 2 µM; IC50 (VMRC-RCZ): > 2 µM; IC50 (HPAF-II): > 2 µM; IC50 (DMS-273): > 2 µM; IC50 (HT-29): > 2 µM; IC50 (Huh-7): > 2 µM; IC50 (KU-19-19): > 2 µM; IC50 (CP50-MEL-B): > 2 µM; IC50 (CHP-212): > 2 µM; IC50 (Calu-3): > 2 µM; IC50 (MHH-ES-1): > 2 µM
